# Laboratory results: US9987200B2, “Activated micro-bubble based root canal disinfection” (SyACT, LLP, priority 2014, dated 2018)
# Legend:
# bacterial biofilms = experiment: Laser confocal microscopy of treated root canals, live/dead bacteria (FIGS. 20-22); assay type: cell-based; settings: then sonic and light activation of the micro-bubble solution
# Source text: FIGS. 21-22 show laser confocal microscopy images showing bacterial biofilms (and dead cells as red and viable cells are green).
# In these photographs, active bacteria are shown in green and dead bacteria as shown in red. FIG. 20 contains photomicrographs of a control tooth.
# [1] = Singlet oxygen release measured with 1,3-diphenylisobenzofuran (DPBF); assay type: physicochemical; settings: with sonic activation compared with no sonic activation (FIG. 11)
# Procedure: As noted above, when the light reaches the photosensitive compound, the photosensitive compound releases energy to convert the oxygen molecules to singlet oxygen. […] The singlet oxygen release was measured using 1, 3-diphenylisobenzofuran (DPBF). DPBF is a chemical used to study the degree of release of singlet oxygen; it is not actually part of the micro-bubble solution or the photosensitizing solution. As is known, DPBF undergoes bleaching with singlet oxygen and this can be calorimetrically quantified. […]
# FIG. 11 contains graphs showing singlet oxygen yield of methylene blue (on the left hand graph) and rose bengal (on the right hand graph) both with sonic activation (square data points) and without sonic activation (diamond data points). […] The substantial fall off in absorbance in the sonically activated samples (as compared to the non-activated samples) for both the methylene blue and the rose bengal show substantial increase in micro-bubble activity within the first few seconds of activation of the micro-bubble solution.
# [2] = test system: Enterococcus faecalis biofilms; experiment: Confocal laser scanning microscopy of biofilms subjected to different treatments (FIG. 15); assay type: cell-based; settings: one week old E. faecalis biofilms; live green, dead red; light 660 nm
# Source text: FIG. 15 contains in the first two columns, images showing the three-dimensional confocal laser scanning microscopy reconstruction of the Enterococcus faecalis biofilms subjected to different treatments (60×).
# The first two columns of FIG. 15 contain images which show one week old bacterial biofilms of Enterococcus faecalis before and after treatment for the different groups. Each of the six images in the first two columns show active and dead bacteria, with the active bacteria being shown in green and the dead bacteria being shown in red. The two left-hand columns of FIG. 15 contains, images showing the three-dimensional confocal laser scanning microscopy reconstruction of the Enterococcus faecalis biofilms subjected to different treatments (60×). […] However, there active bacteria remain.
# [3] = cited from earlier work
compound,measurement,setting,value
CN(C)c1ccc2nc3ccc(=[N+](C)C)cc-3sc2c1 [methylene blue],Active bacteria remaining in root canal,bacterial biofilms; MB in a water carrier,substantially all of the active bacteria have been eliminated
same,Active bacteria remaining in root canal,"bacterial biofilms; MB in polyethylene glycol, alcohol and water carrier solution",substantially all of the active bacteria have been eliminated
same,Fall off in absorbance (singlet oxygen yield),[1],falls off much more rapidly
O=C([O-])c1c(Cl)c(Cl)c(Cl)c(Cl)c1-c1c2cc(I)c(=O)c(I)c-2oc2c(I)c([O-])c(I)cc12.[Na+].[Na+] [rose bengal],Fall off in absorbance (singlet oxygen yield),[1],fell off much more quickly
OCl [sodium hypochlorite],Active (live) bacteria remaining in biofilm,[2],kills (eliminates) nearly all of the active bacteria
Triton X-100,Solubility,"[3]; at 25° C. in water, benzene, toluene, xylene, trichloroethylene, ethylene glycol, ethyl ether, ethanol, isopropanol, ethylene dichloride",soluble in all proportions
same,Viscosity (Brookfield),[3]; at 25° C.,240 cps
